# Assays:
# Type in all cases: binding
# Src^32KΔC [1] = molecular target: T1, Src^32KΔC (Mus musculus, UniProt P05480); assay: Competition nucleotide displacement assay (Mant-ADP, fluorescence anisotropy)
# T1 construct: mouse Src^85-523 (Src^32KΔC); GST (cleaved yes); made in house; host or cells: baculovirus-infected Sf9 insect cells
# Description: Figure 2 Itk adopts a Src-like autoinhibited conformation. (a) Competition nucleotide displacement assay for Src^32KΔC. 40 μM Src^32KΔC was incubated with 40 μM Mant-ADP until equilibrium was established. Unlabelled ADP or AMPPNP was titrated into the reaction and fluorescence anisotropy monitored. […] (b) Small angle X-ray scattering curves for Itk^32K (cyan), Src^32K (magenta), Src^32KΔC (blue), and Src^32K R175L (green). […] (d) Table of physical parameters obtained from the scattering curves for Itk^32K, Src^32K, Src^32KΔC, and Src^32K R175L. (e)Ab initio model of Itk^32K and docking of autoinhibited Src (2SRC.pdb) into the molecular envelope. Two orientations of the envelope are shown for clarity. (f) Ab initio molecular envelope for Src^32KΔC illustrates the fit of the crystal structure of autoinhibited Src. TEXT PRINTED IN THE PICTURE: (a) ADP: Src^32KΔC Ki (mM): 0.03 ± 0.008 | (a) ANP: Src^32KΔC Ki (mM): 0.69 ± 0.140
# The binding constants for ADP and AMPPNP were determined for Src and Itk proteins by fluorescence anisotropy, using 2′/3′-Mant-labelled nucleotides (Jena Bioscience). Increasing concentrations of Itk^32K, Itk^L351A or Src^32K were incubated with 40 μM Mant-nucleotide in 30 mM Tris pH 7.5, 200 mM NaCl, 5 mM MgCl2, and 1 mM TCEP. Measurements were made with a Perkin Elmer LS50B fluorimeter (λex = 355 nm, λem = 447 nm) at 20 °C. For each data point 50–60 measurements, each with an integration time of 1 s, were averaged. For competition nucleotide displacement assays, 40–80 μM of protein was incubated with 40 μM Mant-ADP until equilibrium was established. Unlabelled nucleotide was titrated into the reaction and fluorescence anisotropy monitored. The equilibrium inhibition constant for the unlabelled nucleotide was calculated from the fitted curve.
# Src^32KΔC L255A = molecular target: T2, Src^32KΔC L255A (Mus musculus, UniProt P05480, L257A); assay: Differential scanning fluorimetry (thermal stability vs nucleotide concentration); conditions: Src^32KΔC L255A non-phosphorylated; DSF
# T2 construct: mouse Src^85-523 (Src^32KΔC); GST (cleaved yes); made in house; host or cells: baculovirus-infected Sf9 insect cells
# Source text: Figure 3 An allosteric switch triggers nucleotide exchange. (a) Hydrophobic stack conservation in Src family kinases. The table illustrates the amino acid identity at each of the three positions in the hydrophobic stack in addition to the invariant tryptophan (Trp260 in Src) for all Src family kinase members. The positions are presented according to their N- to C-terminal order in the primary sequences. Where it was not possible to unambiguously determine the identity of the amino acid contributed by the SH2-kinase variable linker (V3), the residue is denoted by a question mark. (b) Small angle X-ray scattering of Itk^32K L351A (black). The scattering curve for wild type Itk^32K (cyan) is overlaid for comparison. […] (c) Rigid body modelling of Itk^32K L351A and fit to ab initio molecular envelope. Displacement of both the SH3 and SH2 domains is required for a good fit to the experimental scattering curve. (d) Determination of the binding constants of Itk^32K L351A for nucleotides by fluorescence anisotropy. […] (e) Determination of the thermal stabilities and relative binding affinities of non-phosphorylated Src^32KΔC L255A for nucleotides by differential scanning fluorimetry. […] TEXT PRINTED IN THE PICTURE: (d) Mant-ADP: Itk^32K L351A (non-phos) Kd (μM): 21.0 ± 2.1 | (d) Mant-ATP: Itk^32K L351A (non-phos) Kd (μM): 31.7 ± 2.7 | (e) ADP: Src^32KΔC L255A (non-phos) [nuc]1/2 (μM): 310 ± 20; Src^32KΔC L255A (non-phos) Tm^max (°C): 52.9; Src^32KΔC L255A (non-phos) ΔTm^max (°C): + 6.8 | (e) ATP: Src^32KΔC L255A (non-phos) [nuc]1/2 (μM): 100 ± 10; Src^32KΔC L255A (non-phos) Tm^max (°C): 54.2; Src^32KΔC L255A (non-phos) ΔTm^max (°C): + 8.1 | (e) apo: Src^32KΔC L255A (non-phos) Tm^max (°C): 46.1
# Due to limiting protein concentrations, we were unable to obtain a binding curve by fluorescence anisotropy, so we instead used thermal stability measurements to investigate its nucleotide-binding properties. Determination of accurate binding constants from thermal stability measurements requires knowledge of the enthalpy of unfolding. However, for a given protein, the enthalpy of unfolding is independent of the ligand being tested, so comparison of the concentrations of nucleotide required for half maximal stabilisation is valid.
# (§1) Thermal stabilities as a function of nucleotide concentration were measured by differential scanning fluorimetry (DSF). Samples contained 0.1 mg/ml protein in 50 mM Tris pH 7.5, 150 mM NaCl, 1 mM TCEP, and 5 mM MgCl2 with ADP, ATP, or AMPPNP concentrations ranging from 0–16 mM. Samples were measured in triplicate using a BioRad iQ™5 Multicolor Real-Time PCR Detection System. For detection of phosphorylated protein, samples were diluted and 1 ng and 15 ng were loaded to SDS-PAGE for Src and Itk proteins, respectively. Phosphorylation was measured by immunoblot.
# Src^32KΔC [2] = molecular target: T1, Src^32KΔC; assay: as above; conditions: vs AMPPNP
# Source text: as §1, with “Having observed that Itk^32K binds and is stabilised by ADP in the absence of a C-terminal tail, we investigated whether the C-terminal tail of Src influences its nucleotide binding or conformation in vitro, using a construct of Src lacking its C-tail (Src^32KΔC) and a SH2 domain mutant of Src that is incapable of binding phosphotyrosine peptides (Src^32K R175L, Supplementary Fig. 3a,b)[39]. […] Thermal stability measurements support the stabilisation of Src^32KΔC by ADP (Supplementary Fig. 6a). Thermal” for “Thermal”
compound,measurement,setting,value
Nc1ncnc2c1ncn2[C@@H]1O[C@H](COP(=O)(O)OP(=O)(O)O)[C@@H](O)[C@H]1O [ADP],Ki,"Src^32KΔC [1]; 40 μM Src^32KΔC, 40 μM Mant-ADP, read-out: Ki (equilibrium inhibition constant)",30 ± 8 µM
same,"fold difference in Ki, ADP preferred over AMPPNP","Src^32KΔC [1]; Src^32KΔC, displacement of Mant-ADP",approximately 23 fold
same,Tm^max,Src^32KΔC L255A,52.9 °C
same,[nuc]1/2 (nucleotide concentration for half maximal stabilisation),Src^32KΔC L255A,310 ± 20 µM
same,thermal stabilisation compared with other nucleotides,Src^32KΔC [2],higher thermal stability

# From publication PMC5727165, “A switch in nucleotide affinity governs activation of the Src and Tec family kinases” (Scientific Reports, 2017)
